“Also recorded” adds a separate entry of the source. Read-outs that look alike come from different tables or passages of the source.
Assays:
[1] = Hydration (water content) of crystalline forms; type: physicochemical; conditions: for Hydration: in words
[2] = Crystallinity and morphology (microscopy, X-ray diffraction); type: physicochemical
[3] = Differential Scanning Calorimetry (DSC), peak temperatures; type: physicochemical
[4] = Hygroscopicity (Equilibrium Moisture Content and rate); type: physicochemical; conditions: for Hygroscopicity: Rate: in words
[5] = Powder properties (density, surface area, flowability); type: physicochemical; conditions: in words
[6] = Intrinsic Dissolution Rate; type: physicochemical; conditions: in words
[7] = compared with α-form or simple salts; powder for reconstitution

Row | Structure (SMILES) | Hydration, water content [1] | Hydration [1] | Morphology [2] | Crystallinity: X-ray diffraction [2] | Crystallinity: Microscopy [2] | Hygroscopicity: EMC (Equilibrium Moisture Content) [4] | Hygroscopicity: Rate [4] | Density [5] | Flowability [5] | Surface Area [5] | Intrinsic Dissolution Rate [6] | also measured
1 | C[C@H]1[C@H](NC(=O)/C(=N\OC(C)(C)C(=O)O)c2csc(N)n2)C(=O)N1S(=O)(=O)O [α-Form, [3S-[3α(Z),4β]]-3-[[(2-amino-4-thiazolyl)[(1-carboxy-1-methylethoxy)imino]acetyl]amino]-4-methyl-2-oxo-1-azetidinesulfonic acid] | 7-14 % water | Hydrous | needles or rods | crystalline | birefringent | 0-14% | rapid | low | poor | high | slow | DSC, peak temperature, exotherm ([3]; decomp.): 200 °C; DSC, peak temperature, endotherm ([3]; dehydration): 107 °C
2 | C[C@H]1[C@H](NC(=O)/C(=N\OC(C)(C)C(=O)O)c2csc(N)n2)C(=O)N1S(=O)(=O)O [β-Form, [3S-[3α(Z),4β]]-3-[[(2-amino-4-thiazolyl)[(1-carboxy-1-methylethoxy)imino]acetyl]amino]-4-methyl-2-oxo-1-azetidinesulfonic acid] | 0-1 % water | Anhydrous | spiny fused spherulites | crystalline | birefringent | 0-3% | slow | high | good | low | fast | Hydration ([1]; listed as β-form): anhydrous; DSC, peak temperature, exotherm ([3]; decomp, when crystallized from absolute ethanol): 228 °; DSC, peak temperature, exotherm ([3]; decomp, when crystallized from absolute methanol): 238 °; DSC, endotherm ([3]; in words): none; Hygroscopicity [4]: nonhygroscopic; also recorded: substantially non-hygroscopic; Hygroscopicity ([4]; listed as crystalline, anhydrous form): substantially non-hygroscopic; Density ([5]; listed as β-form): dense; Shelf life [7]: greater than that of the α-form, or for that matter simple salts of the compound
